For the assay, the target named is T1, 20S proteasome (CT-like peptidase, β5 subunit) (Homo sapiens, UniProt P28074).
T1 construct: gene PSMB5; purified 20S proteasome; with 20S proteasome
T1 sequence (P28074 60-263): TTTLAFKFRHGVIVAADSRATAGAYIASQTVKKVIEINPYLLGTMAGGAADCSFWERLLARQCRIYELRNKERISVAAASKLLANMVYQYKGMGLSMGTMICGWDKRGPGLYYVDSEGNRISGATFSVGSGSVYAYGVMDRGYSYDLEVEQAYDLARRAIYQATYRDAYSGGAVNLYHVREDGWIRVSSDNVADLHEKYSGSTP
In words: fluorogenic CT-like peptidase assay with purified […] proteasome. It counts as biochemical.

The term IC50 denotes the concentration needed to halve the response being measured. A low value points to inhibition by little substance. Consider `[O-][n+]1ccccc1[S][Cu][S]c1cccc[n+]1[O-]` [L1, CuPT], for which the IC50 is ~6 µM.

The values are drawn from article PMC4050382, “A novel proteasome inhibitor suppresses tumor growth via targeting both 19S proteasome deubiquitinases and 20S proteolytic peptidases” (Scientific Reports, 2014).
